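Test compounds were applied to cells in 96-well plates for 48 hours at 5 doses. The concentration for 50% growth inhibition is given as GI50.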 Active and inactive are the calls of the source. Cut-off read from the data, not from the text of the source: active = GI50 up to about 1.1 µM and inactive = higher.
How the values were obtained:
Experiment in all cases: NCI tumour cell line growth inhibition, 48 h
SNB-75 = system: SNB-75
OVCAR-3 = system: OVCAR-3
NCI-H226 = system: NCI-H226
LOX IMVI = system: LOX IMVI
IGROV-1 = system: IGROV-1
SR = system: SR
U-251 = system: U-251
KM12 = system: KM12
SF-539 = system: SF-539
HL-60 = system: HL-60
A549 = system: A549
Malme-3M = system: Malme-3M
NCI-H23 = system: NCI-H23
CCRF-CEM = system: CCRF-CEM
OVCAR-8 = system: OVCAR-8
TK-10 = system: TK-10
HCT-15 = system: HCT-15

Structure (SMILES)	GI50 (SNB-75)	GI50 (OVCAR-3)	GI50 (NCI-H226)	GI50 (LOX IMVI)	GI50 (IGROV-1)	GI50 (SR)	GI50 (U-251)	GI50 (KM12)	GI50 (SF-539)	GI50 (HL-60)	GI50 (A549)	GI50 (Malme-3M)	GI50 (NCI-H23)	GI50 (CCRF-CEM)	GI50 (OVCAR-8)	GI50 (TK-10)	GI50 (HCT-15) [µM]
O=C1CN=C(c2ccccc2)c2ccncc2N1	> 100 µM (inactive)	> 100 µM (inactive)	> 100 µM (inactive)	> 100 µM (inactive)	> 100 µM (inactive)	> 100 µM (inactive)	> 100 µM (inactive)	16.2 µM (inactive)	> 100 µM (inactive)	> 100 µM (inactive)	> 100 µM (inactive)	> 100 µM (inactive)	> 100 µM (inactive)	> 100 µM (inactive)	> 100 µM (inactive)	33.3 µM (inactive)	
N#CC1=C(c2ccccc2)NNC(c2ccc(Cl)cc2)CC1=O (centres undefined)	14.8 µM (inactive)		0.165 µM (active)	32.8 µM (inactive)		39.2 µM (inactive)	57.8 µM (inactive)	38 µM (inactive)		17.6 µM (inactive)	39.9 µM (inactive)	32.4 µM (inactive)	73.6 µM (inactive)			> 100 µM (inactive)	26.2
O=[PH](O)c1cccs1				> 100 µM (inactive)	> 100 µM (inactive)		> 100 µM (inactive)		> 100 µM (inactive)	> 100 µM (inactive)	> 100 µM (inactive)		> 100 µM (inactive)	> 100 µM (inactive)	> 100 µM (inactive)	> 100 µM (inactive)	> 100
OC12CCC3(O)c4ccccc4C3C1c1ccccc12 (centres undefined)	> 100 µM (inactive)		> 100 µM (inactive)	> 100 µM (inactive)		> 100 µM (inactive)	> 100 µM (inactive)	> 100 µM (inactive)		> 100 µM (inactive)	> 100 µM (inactive)	> 100 µM (inactive)	> 100 µM (inactive)	> 100 µM (inactive)	> 100 µM (inactive)	> 100 µM (inactive)	> 100
CC(=O)OC1CC[C@@]2(C)C(CC(OC3OC(CO)C(O)C(O)C3O)[C@]3(C)C2CCC24CC23CC[C@H]4C(C)CC(O)[C@@H](O)C(C)(C)O)C1(C)C (some centres undefined)	11.4 µM (inactive)	16.5 µM (inactive)	17 µM (inactive)	8.61 µM (inactive)	11.5 µM (inactive)		9.71 µM (inactive)	10.5 µM (inactive)	10.3 µM (inactive)	11.6 µM (inactive)	> 50 µM (inactive)	9.51 µM (inactive)	> 50 µM (inactive)	11.4 µM (inactive)	19.9 µM (inactive)	22.9 µM (inactive)	> 50
O=C1CCCCCCCCCCC1CN1CCCCC1 (centres undefined)	39.1 µM (inactive)	> 100 µM (inactive)	28.2 µM (inactive)	70.6 µM (inactive)	74.3 µM (inactive)	> 100 µM (inactive)	75.3 µM (inactive)	71.1 µM (inactive)		87.1 µM (inactive)	> 100 µM (inactive)	> 100 µM (inactive)	26.9 µM (inactive)	66.8 µM (inactive)	> 100 µM (inactive)	38.4 µM (inactive)	59.8
O=C(Cn1ccnc1[N+](=O)[O-])c1ccc(F)cc1	> 100 µM (inactive)	> 100 µM (inactive)	> 100 µM (inactive)	> 100 µM (inactive)	> 100 µM (inactive)		> 100 µM (inactive)	> 100 µM (inactive)	> 100 µM (inactive)	> 100 µM (inactive)	> 100 µM (inactive)	> 100 µM (inactive)	> 100 µM (inactive)	> 100 µM (inactive)	> 100 µM (inactive)	> 100 µM (inactive)	> 100
COc1ccc(-c2nc(Sc3c([N+](=O)[O-])ncn3C)n[nH]2)cc1	4.92 µM (inactive)	1.94 µM (inactive)	13.4 µM (inactive)	2.72 µM (inactive)	4.12 µM (inactive)	3.23 µM (inactive)	2.25 µM (inactive)	1.99 µM (inactive)	1.87 µM (inactive)		12.4 µM (inactive)	2.6 µM (inactive)	1.77 µM (inactive)	2.89 µM (inactive)	2.44 µM (inactive)	6.17 µM (inactive)	
CN(C)C(=N)NC(=S)N(C)C	> 100 µM (inactive)		17.2 µM (inactive)	> 100 µM (inactive)	> 100 µM (inactive)	> 100 µM (inactive)	> 100 µM (inactive)	> 100 µM (inactive)	> 100 µM (inactive)	> 100 µM (inactive)	> 100 µM (inactive)	> 100 µM (inactive)	> 100 µM (inactive)	> 100 µM (inactive)	> 100 µM (inactive)	> 100 µM (inactive)	> 100
COC1(OC)CC2C(=O)N(Cc3ccccc3)C1C(S(=O)(=O)c1ccccc1)C2C(C)S(=O)(=O)c1ccccc1 (centres undefined)		> 100 µM (inactive)		> 100 µM (inactive)	> 100 µM (inactive)	> 100 µM (inactive)	> 100 µM (inactive)	> 100 µM (inactive)	> 100 µM (inactive)	> 100 µM (inactive)	> 100 µM (inactive)	> 100 µM (inactive)	> 100 µM (inactive)	> 100 µM (inactive)	> 100 µM (inactive)	> 100 µM (inactive)	> 100
COC(=O)C1(c2ccc(OC)cc2)NC(c2ccccc2)C2C(=O)N(c3ccc(OC)cc3)C(=O)C21 (centres undefined)	> 100 µM (inactive)			> 100 µM (inactive)	> 100 µM (inactive)		> 100 µM (inactive)	> 100 µM (inactive)	> 100 µM (inactive)	> 100 µM (inactive)	> 100 µM (inactive)	> 100 µM (inactive)	> 100 µM (inactive)	> 100 µM (inactive)	> 100 µM (inactive)	> 100 µM (inactive)	> 100
C/C(=N/Nc1ccc([N+](=O)[O-])cc1[N+](=O)[O-])C(CC(C(=O)NCc1ccccc1)/C(C)=N\Nc1ccc([N+](=O)[O-])cc1[N+](=O)[O-])C(=O)NCc1ccccc1 (centres undefined)	2.96 µM (inactive)	11.3 µM (inactive)	11.2 µM (inactive)		13.7 µM (inactive)	9.1 µM (inactive)	3.25 µM (inactive)	4.86 µM (inactive)	4.06 µM (inactive)	< 0.01 µM (active)	4.4 µM (inactive)	12.2 µM (inactive)	13.3 µM (inactive)		2.14 µM (inactive)		10.3
c1ccc2c(c1)[nH]c1c2ncc2[nH]c3ccccc3c21	3.52 µM (inactive)	2.54 µM (inactive)	14 µM (inactive)	1.94 µM (inactive)	5.19 µM (inactive)		2.43 µM (inactive)	3.06 µM (inactive)	2.61 µM (inactive)	2 µM (inactive)	4.65 µM (inactive)	19.4 µM (inactive)	10.4 µM (inactive)	3.03 µM (inactive)	3.23 µM (inactive)	7.33 µM (inactive)	2.25
CN(C)[C@@H]1C(O)=C(C(=O)NCN2CCN(C(=N)NC(=N)N)CC2)C(=O)[C@@]2(O)C(O)=C3C(=O)c4c(O)cccc4[C@@](C)(O)[C@H]3C[C@@H]12	0.138 µM (active)	0.287 µM (active)		0.156 µM (active)	0.207 µM (active)	0.0406 µM (active)	0.269 µM (active)	0.368 µM (active)	0.216 µM (active)	0.0236 µM (active)		0.269 µM (active)	0.136 µM (active)	0.11 µM (active)	0.273 µM (active)	0.468 µM (active)	0.0721
C/C(CC(=O)Nc1cccc([N+](=O)[O-])c1)=N\NC(=O)CC#N	> 100 µM (inactive)	> 100 µM (inactive)	> 100 µM (inactive)	> 100 µM (inactive)	> 100 µM (inactive)		> 100 µM (inactive)	> 100 µM (inactive)	> 100 µM (inactive)	> 100 µM (inactive)	> 100 µM (inactive)	> 100 µM (inactive)	> 100 µM (inactive)	> 100 µM (inactive)	> 100 µM (inactive)	> 100 µM (inactive)	
C/C(=N\O)C(CN(C)C)C(c1ccccc1)c1c(O)c2ccccc2oc1=O (centres undefined)	> 100 µM (inactive)		> 100 µM (inactive)	> 100 µM (inactive)	> 100 µM (inactive)	> 100 µM (inactive)	> 100 µM (inactive)	> 100 µM (inactive)	> 100 µM (inactive)	> 100 µM (inactive)	> 100 µM (inactive)	> 100 µM (inactive)	> 100 µM (inactive)	> 100 µM (inactive)	> 100 µM (inactive)	> 100 µM (inactive)	> 100
COc1cccc(/C=C2\C(=O)N(C(=O)c3ccc(NC(C)=O)cc3)N=C2C)c1	> 100 µM (inactive)	> 100 µM (inactive)	> 100 µM (inactive)	> 100 µM (inactive)			> 100 µM (inactive)		> 100 µM (inactive)		> 100 µM (inactive)	> 100 µM (inactive)	> 100 µM (inactive)	> 100 µM (inactive)	> 100 µM (inactive)	> 100 µM (inactive)	> 100
CN(c1ccccc1)c1nc(=[N+]2CCCC2)ss1.[O-][Cl+3]([O-])([O-])[O-]	> 100 µM (inactive)	> 100 µM (inactive)	> 100 µM (inactive)		> 100 µM (inactive)	17.1 µM (inactive)	> 100 µM (inactive)	> 100 µM (inactive)		> 100 µM (inactive)	> 100 µM (inactive)	> 100 µM (inactive)		> 100 µM (inactive)	> 100 µM (inactive)	> 100 µM (inactive)	87.7
